Data from patent publication US5747660A, “Nucleic acid encoding prostaglandin F2α receptor regulatory protein” (priority 1995, dated 1998).

B1: Prolactin Receptor: over-expressed control protein, cotransfected construct (protein, UniProt P16471 25-622, looked up)
Prolactin receptor: QLPPGKPEIFKCRSPNKETFTCWWRPGTDGGLPTNYSLTYHREGETLMHECPDYITGGPNSCHFGKQYTSMWRTYIMMVNATNQMGSSFSDELYVDVTYIVQPDPPLELAVEVKQPEDRKPYLWIKWSPPTLIDLKTGWFTLLYEIRLKPEKAAEWEIHFAGQQTEFKILSLHPGQKYLVQVRCKPDHGYWSAWSPATFIQIPSDFTMNDTTVWISVAVLSAVICLIIVWAVALKGYSMVTCIFPPVPGPKIKGFDAHLLEKGKSEELLSALGCQDFPPTSDYEDLLVEYLEVDDSEDQHLMSVHSKEHPSQGMKPTYLDPDTDSGRGSCDSPSLLSEKCEEPQANPSTFYDPEVIEKPENPETTHTWDPQCISMEGKIPYFHAGGSKCSTWPLPQPSQHNPRSSYHNITDVCELAVGPAGAPATLLNEAGKDALKSSQTIKSREEGKATQQREVESFHSETDQDTPWLLPQEKTPFGSAKPLDYVEIHKVNKDGALSLLPKQRENSGKPKKPGTPENNKEYAKVSGVMDNNILVLVPDPHAKNVACFEESAKEAPPSLEQNQAEKALANFTATSSKCRLQLGGLDYLDPACFTHSFH
modifications: over-expressed construct
B2: Progesterone Receptor: over-expressed control protein, cotransfected construct (protein, UniProt P06401 1-933, looked up)
Progesterone receptor: MTELKAKGPRAPHVAGGPPSPEVGSPLLCRPAAGPFPGSQTSDTLPEVSAIPISLDGLLFPRPCQGQDPSDEKTQDQQSLSDVEGAYSRAEATRGAGGSSSSPPEKDSGLLDSVLDTLLAPSGPGQSQPSPPACEVTSSWCLFGPELPEDPPAAPATQRVLSPLMSRSGCKVGDSSGTAAAHKVLPRGLSPARQLLLPASESPHWSGAPVKPSPQAAAVEVEEEDGSESEESAGPLLKGKPRALGGAAAGGGAAAVPPGAAAGGVALVPKEDSRFSAPRVALVEQDAPMAPGRSPLATTVMDFIHVPILPLNHALLAARTRQLLEDESYDGGAGAASAFAPPRSSPCASSTPVAVGDFPDCAYPPDAEPKDDAYPLYSDFQPPALKIKEEEEGAEASARSPRSYLVAGANPAAFPDFPLGPPPPLPPRATPSRPGEAAVTAAPASASVSSASSSGSTLECILYKAEGAPPQQGPFAPPPCKAPGASGCLLPRDGLPSTSASAAAAGAAPALYPALGLNGLPQLGYQAAVLKEGLPQVYPPYLNYLRPDSEASQSPQYSFESLPQKICLICGDEASGCHYGVLTCGSCKVFFKRAMEGQHNYLCAGRNDCIVDKIRRKNCPACRLRKCCQAGMVLGGRKFKKFNKVRVVRALDAVALPQPVGVPNESQALSQRFTFSPGQDIQLIPPLINLLMSIEPDVIYAGHDNTKPDTSSSLLTSLNQLGERQLLSVVKWSKSLPGFRNLHIDDQITLIQYSWMSLMVFGLGWRSYKHVSGQMLYFAPDLILNEQRMKESSFYSLCLTMWQIPQEFVKLQVSQEEFLCMKVLLLLNTIPLEGLRSQTQFEEMRSSYIRELIKAIGLRQKGVVSSSQRFYQLTKLLDNLHDLVKQLHLYCLNTFIQSRALSVEFPEMMSEVIAAQLPKILAGMVKPLLFHKK

How the values were obtained:
[1] = test system: prostaglandin F2α receptor (FP); experiment: Effect of intracellular messenger altering agents on [3H]PGF2α binding and on FPRP inhibition of it; type: cell-based; conditions: for % Control [^3 H]PGF2α Binding, FP + FPRP: FP + FPRP transfected cells treated with the agent; for % Control [^3 H]PGF2α Binding, FP + pSG5: FP + pSG5 transfected cells treated with the agent; for % Inhibition (FPRP inhibition of [^3 H]PGF2α binding): in presence of the agent at the concentration/time given; for effect of agent on FPRP inhibition of [^3 H]PGF2α binding (words): FP + FPRP transfected cells pretreated with the agent; for effect of agent on basal [^3 H]PGF2α binding: FP transfected cells pretreated with the agent
Experimental: In a third experiment, transfected cells were treated for 30 min with exposure to the following: phorbol 12-myristate 13-acetate 10^-8 M, prostaglandin E1, 10^-7 M, A23187 10^-6 M, okadaic acid 10^-6 M, or 8-Br-cAMP 10^-5 M (Table 4).
The effect of brefeldin A (3 μg/ml, 2 hr), chloroquine (100 μM, 6 hr) and tunicamysin (2.5 μg/ml, 20 hr) was determined.

[2] = test system: prostaglandin F2α receptor (FP); experiment: [3H]PGF2α specific binding to COS cells cotransfected with FP cDNA and a test cDNA construct; type: cell-based, rat, mouse; conditions: COS cells cotransfected with FP + the named DNA; FP alone = 100
[3] = test system: prostaglandin F2α receptor (FP); experiment: Cotransfection of a third construct along with FP and FPRP, [3H]PGF2α binding; type: cell-based; conditions: FP + FPRP + the named third construct; FP + pSG5 = 100
From the text: Therefore, a strategy based on cotransfection of a third construct (along with FP and FPRP) was pursued. These third party constructs included ones coding for the protease inhibitors alpha-l trypsin inhibitor and crmA, an inhibitor of cell death, bcl2, and few nonspecific control molecules including the vitamin D receptor, a secreted immunoglobulin molecule, and the empty parent vector pSG5 only. All groups and treatments were compared with control treatment of FP+pSG5 vs. FP+FPRP.

[4] = molecular target: prostaglandin F2α receptor (FP), cDNA construct whose species the place does not tell
[5] = molecular target: rat prostaglandin F2α receptor regulatory protein (FPRP) (rat)

Molecule	% Control [^3 H]PGF2α Binding, FP + FPRP [1]	% Control [^3 H]PGF2α Binding, FP + pSG5 [1]	% Inhibition (FPRP inhibition of [^3 H]PGF2α binding) [1]	% control ^3 H!PGF2α specific binding, co-transfection [4]	also measured
C=C1[C@@H](O)[C@@H]2O[C@]3(CC[C@H](/C=C/[C@@H](C)[C@@H]4CC(C)=C[C@@]5(O[C@H](C[C@@](C)(O)C(=O)O)CC[C@H]5O)O4)O3)CC[C@H]2O[C@@H]1[C@@H](O)C[C@H](C)[C@H]1O[C@@]2(CCCCO2)CC[C@H]1C [Okadaic acid, okadaic acid]	45 ± 3%	94 ± 3%	52%	–	–
bcl-2: an inhibitor of cell death, cotransfected construct	–	–	–	–	% CONTROL, [^3 H]PGF2α specific binding [2]: 84 ± 5%; % Control [^3 H]PGF2α Binding [3]: 30 ± 3%
CCCCC[C@H](O)/C=C/[C@H]1[C@H](O)CC(=O)[C@@H]1CCCCCCC(=O)O [PGE1, prostaglandin E1]	51 ± 3%	100 ± 3%	49%	–	–
βPDGF Receptor	–	–	–	90 % control	–
CNc1ccc2oc(C[C@H]3O[C@@]4(CC[C@H]3C)O[C@H]([C@H](C)C(=O)c3ccc[nH]3)[C@H](C)C[C@H]4C)nc2c1C(=O)O [Calcium ionophore A23187]	51 ± 6%	102 ± 6%	50%	–	–
1 Trypsin Inhibitor: protease inhibitor alpha-l trypsin inhibitor, cotransfected construct	–	–	–	–	% CONTROL, [^3 H]PGF2α specific binding [2]: 141 ± 3%; % Control [^3 H]PGF2α Binding [3]: 38 ± 3%
bcl-2	–	–	–	84 % control	% control ^3 H!PGF2α binding, third construct co-transfected with FP and FPRP [5]: 30 % control
Prolactin Receptor	–	–	–	130 % control	–
CCN(CC)CCCC(C)Nc1ccnc2cc(Cl)ccc12 (stereo not drawn) [Chloroquine, chloroquine]	37 ± 3%	91 ± 3%	59%	–	effect of agent on FPRP inhibition of [^3 H]PGF2α binding (words) [1]: little or no effect; effect of agent on basal [^3 H]PGF2α binding [1]: little or no effect
Progesterone Receptor	–	–	–	103 % control	–
CCCCCCCCCCCCCC(=O)OC1C(C)C2(O)C(C=C(CO)CC3(O)C(=O)C(C)=CC32)C2C(C)(C)C12OC(C)=O (stereo not drawn) [Phorbol 12-myristate 13-acetate, phorbol 12-myristate 13-acetate]	54 ± 3%	105 ± 7%	50%	–	–
TGN38	–	–	–	135 % control	–
alpha-1 trypsin inhibitor	–	–	–	141 % control	% control ^3 H!PGF2α binding, third construct co-transfected with FP and FPRP [5]: 38 % control
Nc1ncnc2c1nc(Br)n2[C@@H]1O[C@@H]2COP(=O)(O)O[C@H]2[C@H]1O [8-Br-cAMP]	52 ± 3%	94 ± 6%	45%	–	–
crmA	–	–	–	141 % control	% control ^3 H!PGF2α binding, third construct co-transfected with FP and FPRP [5]: 29 % control
C[C@H]1CCC/C=C/[C@@H]2C[C@H](O)C[C@H]2[C@H](O)/C=C/C(=O)O1 [Brefeldin A, brefeldin A]	27 ± 3%	91 ± 3%	70%	–	effect of agent on FPRP inhibition of [^3 H]PGF2α binding (words) [1]: no effect; effect of agent on FPRP inhibition of [^3 H]PGF2α binding (words) ([1]; listed as brefeldin A): little or no effect; effect of agent on basal [^3 H]PGF2α binding [1]: little or no effect
Vitamin D receptor: over-expressed control protein, cotransfected construct	–	–	–	–	% CONTROL, [^3 H]PGF2α specific binding [2]: 131 ± 7%; % Control [^3 H]PGF2α Binding [3]: 36 ± 3%
Vitamin D receptor	–	–	–	131 % control	% control ^3 H!PGF2α binding, third construct co-transfected with FP and FPRP [5]: 36 % control
tunicamycin	23 ± 3%	46 ± 3%	50%	–	effect of agent on FPRP inhibition of [^3 H]PGF2α binding (words) [1]: approximately the same extent; effect of agent on basal [^3 H]PGF2α binding [1]: decreased
B1	–	–	–	–	% CONTROL, [^3 H]PGF2α specific binding [2]: 130 ± 7%
B2	–	–	–	–	% CONTROL, [^3 H]PGF2α specific binding [2]: 103 ± 5%
